In US12029818B2 (CRITITECH, INC., priority 2020, dated 2024):

Experiments:
[1] = Specific surface area by BET sorptometry
Procedure: SSA determination analyses were conducted on a Porous Materials, Inc., Automated BET Sorptometer BET-202A according to manufacturer's instructions.

[2] = Particle size distribution (PSD) by laser diffraction, Malvern Mastersizer 3000; type: physicochemical
Procedure: PSD analyses were conducted on a Malvern Mastersizer™ 3000 using the Aero S™ dispersion unit according to manufacturer's instructions.

[3] = PXRD solid form and 14 day room temperature stability study
[4] = Shake-flask solubility in organic solvent/water mixtures; type: physicochemical; conditions: methanol and ethanol in water
Procedure: The drug was added in excess to each solution prepared in duplicate.

- SSA ([1]; listed as Lapatinib Raw): 2.33 m^2/g
- SSA ([1]; listed as unprocessed material): 1.60 m^2/g
- PSD: Volume Dv-10 [2]: 0.839 μm
- PSD: Volume Dv-50 [2]: 6.59 μm
- PSD: Volume Dv-90 [2]: 335 μm
- Crystalline/amorphous form by PXRD [3]: crystalline
- Solubility dependence on organic solvent concentration [4]: concentration dependent solubility
SMILES: CS(=O)(=O)CCNCc1ccc(-c2ccc3ncnc(Nc4ccc(OCc5cccc(F)c5)c(Cl)c4)c3c2)o1 [Lapatinib, N-(3-chloro-4-{[(3-fluorophenyl)methyl]oxy}phenyl)-6-[5-({[2-(methylsulfonyl)ethyl]amino}methyl)-2-furanyl]-4-quinazolinamine]
